In ChEMBL document CHEMBL2062495:
Activity calls are given as the source filed them. The calls are words filed in the database; no cut-off is given here. Square brackets hold non-standard residues; d marks the D form. Peptide text beside a SMILES is read from it. * marks the point of attachment. Sta = CC(C)C[C@H](N)[C@@H](O)CC(=O)O; NMe2Val = CC(C)[C@@H](C(=O)*)N(C)C; dNMeF = CN[C@H](Cc1ccccc1)C(=O)O; dHiv = CC(C)[C@@H](O)C(=O)O; Hiv = CC(C)[C@H](O)C(=O)O

Assays:
[1] = system: Dendritic cell; experiment: (§1) Inhibition of MHC class 2-dependent antigen processing in DO11.10 TCR transgenic mouse spleen CD11+ dendritic cells assessed as inhibition of whole ovalbumin-induced CD4+ T cell proliferation incubated for 1 hr prior to whole ovalbumin-challenge measured after 72 hrs by [3H]thymidine incorporation assay; assay type: functional, tissue-based
[2] = system: Dendritic cell; experiment: as §1, with “ovalbumin 323 to 339-induced” for “whole ovalbumin-induced”, “ovalbumin 323 to 339 challenge” for “whole ovalbumin-challenge”; assay type: functional, tissue-based

In the case of `COC(=O)[C@@H]1CCCN1C(=O)[C@@H](Cc1ccccc1)N(C)C(=O)[C@H](C)NC(=O)[C@@H](NC(=O)C[C@H](O)[C@H](CC(C)C)NC(=O)[C@H](CC(N)=O)NC(=O)[C@H](CC(C)C)NC(=O)[C@H](OC(=O)[C@@H](OC(=O)[C@H](C(C)C)N(C)C)C(C)C)C(C)C)[C@@H](C)O` (NMe2Val-[Hiv][dHiv]LN[Sta]TA[dNMeF]P-OMe), the inhibition [1] is reported as “inactive” and the inhibition [2] is reported as “inactive”.
